Results published in patent publication US20060204537A1, “Silicone blends and composites for drug delivery” (Genzyme Corporation, priority 2002, published 2006).

Assay: Release of Paclitaxel from silicone elastomer coatings into calf serum
Format: physicochemical
Settings: for steady state release rate of Paclitaxel: calf serum, 37° C.
Method: All samples were dip-coated pieces of 316 L stainless steel, measuring 1 cm×1 cm with 26 gauge thickness. The stainless steel pieces were first cleaned by sonicating in 3% Isopanasol, deionised (DI) water, and acetone, each for 6 minutes, then dipped into the silicone composite solutions of the invention. Silicone elastomer solutions were made with DAP® 100% silicone rubber adhesive (from DAP, Inc., Maryland) co-dissolved with either Paclitaxel or Tranilast and 20% (w/w) of polyethylene glycol, MW 3400 (PEG) in methylene chloride. Upon setting, the silicone elastomer solutions formed a film on the steel pieces having a certain thickness. Paclitaxel was loaded at 2% of silicone weight. Tranilast was loaded at 5% of silicone weight. […] All samples were placed in glass culture tubes with 2 mL of either PBS, pH 7.4 or calf serum. The culture tubes were then placed in a shaking water bath at 37° C. and 120 rpm. At each time interval, all of the release media was removed and replaced by fresh solution. Paclitaxel samples were assayed using a competitive inhibition enzyme immunoassay (CIEIA) kit from Hawaii Biotech, Aiea, Hi. Tranilast samples were assayed using UV spectrophotometry at a wavelength of 340 nm.

## CC(=O)O[C@H]1C(=O)[C@@]2(C)[C@H]([C@H](OC(=O)c3ccccc3)[C@]3(O)C[C@H](OC(=O)[C@H](O)[C@@H](NC(=O)c4ccccc4)c4ccccc4)C(C)=C1C3(C)C)[C@]1(OC(C)=O)CO[C@@H]1C[C@@H]2O [Paclitaxel]
Both films, with and without PEG
  duration of almost zero-order release after the initial burst: 60 days
Films with 20% weight PEG MW 3400
  steady state release rate of Paclitaxel: 0.38 ± 0.03 µg/day
Films without PEG compared with films with 20% PEG
  initial burst of Paclitaxel: higher initial burst
Films without PEG
  steady state release rate of Paclitaxel: 0.21 ± 0.03 µg/day
Silicone elastomer coatings
  duration of continued but decreased release: ≤ 140 days
